Source: patent US12691107B2, “Methods for the treatment and prevention of lung infections caused by gram-positive bacteria, fungus, or virus by administration of tafenoquine” (priority 2020, dated 2026)
Values after ≈ are worked out from the molar mass of the structure shown. Read-outs that look alike come from different tables or passages of the source.

Key:
Enterococcus faecium = assay: Antibacterial MIC (broth microdilution); format: cell-based; conditions: isolate 1593
C. krusei = assay: Antifungal MIC (RPMI-1640 microdilution); format: cell-based; conditions: Pichia kudriavzevii, isolate ATCC 6258
Candida albicans = assay: Antifungal MIC (RPMI-1640 microdilution); format: cell-based
Altenaria sp. = assay: Antifungal MIC (RPMI-1640 microdilution); format: cell-based; conditions: isolate Alt1
Histoplasma capsulatum = assay: microbe, parasite or virus in culture; format: cell-based
Curvularia sp. = assay: Antifungal MIC (RPMI-1640 microdilution); format: cell-based
Rhizopus arrhizus = assay: Antifungal MIC (RPMI-1640 microdilution); format: cell-based
Blastomyces dermatitidis = assay: Antifungal MIC (RPMI-1640 microdilution); format: cell-based
Streptococcus pneumoniae = assay: Antibacterial MIC (broth microdilution); format: cell-based; conditions: CA-MHB with 3% LHB
Saksenaea sp. = assay: Antifungal MIC (RPMI-1640 microdilution); format: cell-based
Scedosporium sp. = assay: Antifungal MIC (RPMI-1640 microdilution); format: cell-based
Exserohilum sp. = assay: Antifungal MIC (RPMI-1640 microdilution); format: cell-based
SARS-CoV-2 [1] = assay: SARS-CoV-2 antiviral assay in CALU-3 cells; format: cell-based; conditions: Severe acute respiratory syndrome coronavirus 2, medium with 10% fetal bovine serum, read-out: EC50 (same as IC50 of FIG. 4)
SARS-CoV-2 [2] = assay: microbe, parasite or virus in culture; format: cell-based; conditions: Severe acute respiratory syndrome coronavirus 2, Vero C1008; Vero E6, moi 0.05, 48 hours, TCID50
[3] = rat, in vivo, 125 mg/kg; cited from earlier work
[4] = Calculation of RLTEC and MPEC50 for tafenoquine against SARS-CoV-2; conditions: human, lung/whole blood; assumed to be the same as rats; read-out: Ratio of lung to whole blood concentration for humans
Experimental: (§1) Pneumocystis was used as a model organism against which to set minimum requirements for the maximum acceptable in vitro EC50 of tafenoquine against SARS-CoV-2 in vitro. Pneumocystis was selected because it is the only lung pathogen for which both in vitro and in vivo data are available for tafenoquine. The maximum lung tissue concentration [LTsscmaxrats] at the minimum dose of tafenoquine necessary to inhibit the growth of Pneumocystis in vivo in a treatment modality was calculated using relevant data derived from the scientific literature [see Table 7]. The ratio of that concentration to the EC50 against Pneumocystis in vitro RLTEC was determined [see Table 7]. The plasma steady state Cmax [Psscmaxhumans] at the approved prophylactic dose is known from the ARAKODA product insert [60 Degrees Pharmaceuticals. 2018. Product Insert for ARAKODA.]. The maximum steady state lung tissue concentration [LTsscmaxhumans] of that dose was determined using relevant metrics from the literature. The maximum permissible EC50 (“MPEC50”) was then defined by dividing the LTsscmaxhumans by the RLTEC [Table 7].
(§2) The steady state Cmax at the approved prophylactic dose is known based on prior modeling. The maximum steady state lung tissue concentration of that dose was estimated to be 389 microM [Table 7].
(§3) [Note: These calculated values provided in this example were recalculated and updated in the present application and therefore may differ from what is presented in some cross-referenced U.S. Provisional Applications.]

SARS-CoV-2 [5] = assay: as above
Experimental: as §1, §2, §3

[6] = Blood cell:plasma partitioning experiments; format: in vitro ADME, human; conditions: humans
Pneumocystis [7] = conditions: cited from earlier work
[8] = tested on: RSV, MERS coronavirus and influenza A H1N1; format: cell-based
[9] = tested on: M. tuberculosis [ATCC #27294]; assay: MIC against M. tuberculosis in 7H9 media; format: cell-based; conditions: Mycobacterium tuberculosis
Pneumocystis [10] = assay: Pneumocystis in vitro (Bartlett et al., 1991); format: cell-based; conditions: read-out: equivalent MIC in the absence of protein
Source text: Therefore, the minimum inhibitory concentration in vitro is approximately 10 microgram/ml.

Work on `COc1cc(C)c2c(Oc3cccc(C(F)(F)F)c3)c(OC)cc(NC(C)CCCN)c2n1.O=C(O)CCC(=O)O` (stereo not shown) [Tafenoquine Succinate] yielded an MIC (Enterococcus faecium) of 8 µg/mL, an MIC50 (C. krusei; ATCC6258, read-out: MIC 50% inhibition) of 4 µg/mL and an MIC (C. krusei; ATCC6258, read-out: MIC 100% inhibition) of 4 µg/mL. It also gave an MIC50 (Candida albicans; ATCC90028, read-out: MIC 50% inhibition, isolate ATCC 90028) of 4 µg/mL, an MIC (Candida albicans; ATCC90028, read-out: MIC 100% inhibition, isolate ATCC 90028) of 4 µg/mL and an MIC50 (Candida albicans; read-out: MIC 50% inhibition, isolate CA3) of 4 µg/mL. It also gave an MIC50 (Candida albicans; read-out: MIC 50% inhibition, isolate SC5314) of 8 µg/mL, an MIC (Candida albicans; read-out: MIC 100% inhibition, isolate CA3) of 4 µg/mL and an MIC (Candida albicans; read-out: MIC 100% inhibition, isolate SC5314) of 8 µg/mL. For the same compound, the MIC50 (Altenaria sp.; read-out: MIC 50% inhibition) was 2 µg/mL, the MIC (Altenaria sp.; read-out: MIC 100% inhibition) was 4 µg/mL and the MIC50 (Histoplasma capsulatum; read-out: MIC 50% inhibition, isolate HC1) was 4 µg/mL. For the same compound, the MIC50 (Histoplasma capsulatum; read-out: MIC 50% inhibition, isolate HC2) was 2 µg/mL, the MIC50 (Histoplasma capsulatum; read-out: MIC 50% inhibition, isolate HC3) was 8 µg/mL and the MIC (Histoplasma capsulatum; read-out: MIC 100% inhibition, isolate HC1) was 4 µg/mL. For the same compound, the MIC (Histoplasma capsulatum; read-out: MIC 100% inhibition, isolate HC2) was 4 µg/mL, the MIC (Histoplasma capsulatum; read-out: MIC 100% inhibition, isolate HC3) was 8 µg/mL and the MIC50 (Curvularia sp.; read-out: MIC 50% inhibition, isolate Curv1) was 2 µg/mL. For the same compound, the MIC (Curvularia sp.; read-out: MIC 100% inhibition, isolate Curv1) was 8 µg/mL, the MIC50 (Rhizopus arrhizus; read-out: MIC 50% inhibition, isolate 99-880) was 4 µg/mL and the MIC50 (Rhizopus arrhizus; read-out: MIC 50% inhibition, isolate 99-892) was 4 µg/mL. The MIC50 (Rhizopus arrhizus; read-out: MIC 50% inhibition, isolate RAI) was 8 µg/mL, the MIC (Rhizopus arrhizus; read-out: MIC 100% inhibition, isolate 99-880) was 4 µg/mL and the MIC (Rhizopus arrhizus; read-out: MIC 100% inhibition, isolate 99-892) was 4 µg/mL. It also gave an MIC (Rhizopus arrhizus; read-out: MIC 100% inhibition, isolate RAI) of 16 µg/mL, an MIC50 (Blastomyces dermatitidis; read-out: MIC 50% inhibition, isolate Blasto1) of 1 µg/mL and an MIC50 (Blastomyces dermatitidis; read-out: MIC 50% inhibition, isolate Blasto2) of 4 µg/mL. The MIC50 (Blastomyces dermatitidis; read-out: MIC 50% inhibition, isolate Blasto3) was 8 µg/mL, the MIC (Blastomyces dermatitidis; read-out: MIC 100% inhibition, isolate Blasto1) was 2 µg/mL and the MIC (Blastomyces dermatitidis; read-out: MIC 100% inhibition, isolate Blasto2) was 4 µg/mL. It also gave an MIC (Blastomyces dermatitidis; read-out: MIC 100% inhibition, isolate Blasto3) of 8 µg/mL, an MIC (Streptococcus pneumoniae; Streptococcus pneumoniae, ATCC49619, isolate ATCC 49619, read-out: MIC) of 16 µg/mL and an MIC (Streptococcus pneumoniae; Streptococcus pneumoniae, isolate MD77773, read-out: MIC) of 16 µg/mL. The MIC (Streptococcus pneumoniae; isolate CO314937) was 16 µg/mL, the MIC50 (Saksenaea sp.; read-out: MIC 50% inhibition, isolate Sak1) was 4 µg/mL and the MIC50 (Saksenaea sp.; read-out: MIC 50% inhibition, isolate Sak2) was 2 µg/mL. The MIC50 (Saksenaea sp.; read-out: MIC 50% inhibition, isolate Sak3) was 8 µg/mL, the MIC (Saksenaea sp.; read-out: MIC 100% inhibition, isolate Sak1) was 8 µg/mL and the MIC (Saksenaea sp.; read-out: MIC 100% inhibition, isolate Sak2) was 2 µg/mL. The MIC (Saksenaea sp.; read-out: MIC 100% inhibition, isolate Sak3) was 8 µg/mL, the MIC50 (Scedosporium sp.; Scedosporium, read-out: MIC 50% inhibition, isolate 00-180) was 4 µg/mL and the MIC (Scedosporium sp.; Scedosporium, read-out: MIC 100% inhibition, isolate 00-180) was 8 µg/mL. The MIC (Scedosporium sp.; Scedosporium, read-out: MIC 100% inhibition, isolate LPI) was 8 µg/mL, the MIC (Scedosporium sp.; Scedosporium, read-out: MIC 100% inhibition, isolate Scedo1) was 4 µg/mL and the “MIC 50% inhibition” value (Scedosporium sp.; isolate LPI) was 4 µg/mL. The “MIC 50% inhibition” value (Scedosporium sp.; isolate Scedo1) was 4 µg/mL, the MIC50 (Exserohilum sp.; read-out: MIC 50% inhibition, isolate Exser1) was 4 µg/mL and the MIC (Exserohilum sp.; read-out: MIC 100% inhibition, isolate Exser1) was 8 µg/mL.

For `COc1cc(C)c2c(Oc3cccc(C(F)(F)F)c3)c(OC)cc(NC(C)CCCN)c2n1` (stereo not shown) [Tafenoquine, N(4)-[2,6-Dimethoxy-4-methyl-5-[3-(trifluoromethyl)phenoxy]quinolin-8-yl]pentane-1,4-diamine], the EC50 (SARS-CoV-2 [1]) is given as 8.6 µM, the EC50 (SARS-CoV-2 [2]) is given as 2.6 µM and the “Maximum plasma concentration following a single 125 mpk dose in female rats” value [3] is given as 2240 ng/mL. For the same compound, the Kp [4] was 250, the “LTsscmaxhumans (maximum steady state lung tissue concentration)” value (SARS-CoV-2 [5]; approved prophylactic dose) was 389 µM and the “LTcmaxrats (maximum lung tissue concentration)” value (SARS-CoV-2 [5]; plasma Cmax multiplied by 2.6 and 250) was 23,296 ng/ml. For the same compound, the “ratio of the blood cell:plasma concentration” value [6] was 1.4, the “Approximate EC50 of tafenoquine against Pneumocystis in vitro” value (Pneumocystis [7]) was about 1 µg/mL and the antiviral activity [8] was “too cytotoxic to the cell lines used to determine whether antiviral activity was present”. For the same compound, the MIC ([9]; ATCC27294, 168 h, 7H9 with BSA, DPPC and cholesterol, 1 week, read-out: MIC) was 9.4 µg/mL (≈ 20.3 µM), the MIC ([9]; ATCC27294, 168 h, 7H9 with casitone and DPPC, 1 week, read-out: MIC) was 4.7 µg/mL (≈ 10.1 µM) and the MIC ([9]; ATCC27294, 168 h, 7H9 with glucose and BSA, 1 week, read-out: MIC) was 12.5 µg/mL (≈ 27 µM). For the same compound, the MIC ([9]; ATCC27294, 168 h, 7H9 with glucose and casitone, 1 week, read-out: MIC) was 4.7 µg/mL (≈ 10.1 µM), the MIC ([9]; ATCC27294, 336 h, 7H9 with BSA, DPPC and cholesterol, 2 weeks, read-out: MIC) was 12.5 µg/mL (≈ 27 µM) and the MIC ([9]; ATCC27294, 336 h, 7H9 with casitone and DPPC, 2 weeks, read-out: MIC) was 6.25 µg/mL (≈ 13.5 µM). The MIC ([9]; ATCC27294, 336 h, 7H9 with glucose and BSA, 2 weeks, read-out: MIC) was 19 µg/mL (≈ 41 µM), the MIC ([9]; ATCC27294, 336 h, 7H9 with glucose and casitone, 2 weeks, read-out: MIC) was 6.25 µg/mL (≈ 13.5 µM) and the MIC ([9]; ATCC27294, range over Examples 19-22, read-out: MIC against replicating forms of tuberculosis in vitro) was 4.7 to 18 µg/mL (≈ 10.1 to 38.8 µM). It also gave an MIC (Pneumocystis [10]) of 5 µg/mL.
